Tests used:
[1] = Ease of dispersion: appearance of suspension and sedimentation (visual inspection); type: physicochemical; details: 25 mg/mL in Vehicle PEG 3350 (without L-Methionine)
Experimental: Two lots of 25HC3S sodium salt (Lot #A and Lot #B) were used. Lot #B was delumped through a 20 mesh screen. The drug substance was either used directly or further jet-milled, prior to the preparation of suspensions for the studies. A third lot of 25HC3 S sodium salt (Lot #C) was jet-milled first and then used directly or further passed through a 20 mesh screen prior to the studies. More than 10 vehicles were screened. Four mixing methods were evaluated: manual shaking (Mixing Method 1), manual shaking followed by sonication (Mixing Method 2) and homogenization with a sonic probe (Mixing Method 3) as well as mechanical shaking horizontally in a flat bed shaker (Mixing Method 4). Studies #1 to 13 combined vehicle screening, mixing methods and syringeability evaluation. The effect of drug concentrations on the syringeability was evaluated (Studies #10 and 11).
Weigh approximately 10 to 100 mg each of 25HC3S into 2 mL vials. Add to each vial, 1 mL of vehicle. A total of 3 mixing methods were used to prepare the suspensions. Mixing Method 1: Each vial was manually shaken for 15 to 45 times. The suspension was inspected visually for sedimentation after stored at room temperature (RT) for one minute. […] Mixing Method 2: Each vial was manually shaken 30 times followed by sonication for 3 or 6 minutes for syringeability study. […]

[2] = Homogeneity and content uniformity of 25HC3S suspension by HPLC; type: physicochemical
Experimental: The HPLC technique involved reverse phase HPLC for measuring the concentration of 25HC3 S in the solubility samples.
Weigh 80 mg of 25HC3S (Lot #B, Passed through 20 mesh screen and Jet-milled, 3rd pass) into a 10 mL vial. Add to the vial, 8 mL of Vehicle PEG 3350 (with 0.15% L-Methionine and 0.9% NaCl). […] A total of 9 samples were dispensed using 1 mL BD syringes attached to 20G1″ or 25G⅝″ Terumo UTW needles for homogeneity analysis by HPLC (Study #14) and stability study (Study #17).
Weigh 50 and 80 mg of 25HC3S into 2 and 10 mL vials, respectively. Add to the vial, 2 mL and 8 mL of Vehicle PEG 3350 with L-Methionine. […] The vial was inverted 10 times prior to dispensing 0.2 or 0.9 mL into volumetric flasks for methanol dilution for HPLC analysis (total 8 and 7 samples, respectively for HPLC analysis for potency and stability (Study #15).
Weighed approximately 125 mg each of 25HC3S (Lot #C, jet milled and passed through a 20 mesh screen) into a 10 mL vial. Added to vial, 5 mL of Vehicle PEG 3350 without L-Methionine. The vial was placed horizontally in a flat bed shaker, shaken at 100 rpm for up 45 minutes (Mixing Method 4). There were some small wet lumps stuck to the wall and bottom of the glass vial.
Weigh 87 mg of 25HC3S (Lot #C, Jet milled and then pass 20 mesh screen) into a 5-mL vial. Add to the vial 3 mL Vehicle PEG 3350 (without L-methionine and with 0.75% NaCl). […] Weigh another approximately and accurately 90 mg each of 25HC3S (Lot #D and Lot #B, micronized, one pass) into 3 separate 10 mL vials with 3 mL of Vehicle PEG 3350. The vials were placed in a flat bed shaker at 200 rpm for 45 minutes (Mixing Method 4). […] A second set of samples was prepared likewise from the same 3 vials except using 1 mL BD syringe attached to a 27G½″ needle. The homogeneity was determined (Study #19).

[3] = Single SC injection PK study in Beagle dogs; type: in vivo; details: single SC dose 25 mg/kg
Experimental: The subjects for the study were 5 male Beagle dogs (4-7 years of age; 8-11 kg). […] All animals were in healthy condition and admitted to the study.
The Vehicle was a solution of 3% (w/v) polyethylene glycol 3350, 0.3% (w/v) polysorbate 80, 0.7% (v/v) sodium chloride, 0.15% (w/v) L-methionine, 10 mM sodium phosphate buffer at pH 7.4 in water. 25HC3 S was mixed into the Vehicle solution to result in a drug concentration of 25 mg/mL. […] The formulated test article was used within 24 hours of constitution.
Each dog received a single subcutaneous injection. The dose level of 25 mg/kg was administered in a dose volume of 1 mL/kg. Whole blood samples were collected via the jugular vein at pre-dose, 0.5, 1, 2, 4, 8, 12, 24, and 32 hours (h) post dose. Blood samples were placed into tubes containing K2EDTA. The blood was gently mixed to assure distribution of the anti-coagulant and the resulting plasma samples underwent analyses to quantify 25HC3S levels. […] Assessments included, but were not limited to, evidence of pain on injection, assessment of activity, posture, respiration, emesis, seizure, hydration status, injection site assessment.

## C[C@H](CCCC(C)(C)O)[C@H]1CC[C@H]2[C@@H]3CC=C4C[C@@H](OS(=O)(=O)[O-])CC[C@]4(C)[C@H]3CC[C@]12C.[Na+] [Formulation 25HC3S, 5-cholesten-3, 25-diol, 3-sulfate]
[1]; flat bed shaker 100 rpm up to 50 minutes (Study #12)
  dispersion: did not disperse well
[1]; flat bed shaker 200 rpm up to 45 minutes (Study #13)
  dispersion: dispersed well
[2]; 10 mg/mL in Vehicle PEG 3350 (with 0.15% L-Methionine), n=7, 0.9 mL each, Study #15
  homogeneity: 100.5-103.1 % LS
[2]; 10 mg/mL suspension in Vehicle PEG 3350 (0.15% L-Methionine, 0.9% NaCl), Lot #B jet-milled 3rd pass, n=9, Study #14
  homogeneity: 94.3-98.1 % LS
[2]; 25 mg/mL in Vehicle PEG 3350 (with 0.15% L-Methionine), n=8, 0.2 mL each, Study #15
  homogeneity: 96.2-109.4 % LS
[2]; final improved formulation 25 mg/mL (Study #19)
  homogeneity (and content uniformity): 89.3-105.9 % label strength
[3]
  clinical signs: no observable clinical signs
[3]; PEG 3350 suspension 25 mg/mL
  mean time to maximum plasma drug concentration: 23.2 h
[3]; plasma
  mean concentration at 32 h: 0.1576 µg/mL

From patent US20220175798A1, “COMPOSITIONS COMPRISING OXYGENATED CHOLESTEROL SULFATE AND AT LEAST ONE OF POLYALKYLENE GLYCOL, CARBOXYMETHYL CELLULOSE AND POLYOXYLGLYCERIDE” (Durect Corporation, priority 2016, published 2022)
